Measurements taken from patent US20040231558A1, “Water-color ink” (priority 2001, published 2004).

What was measured:
Type in all cases: physicochemical
[1] = Evaluation of moisture resistance (image-recorded paper at 40° C. and humidity 85%, visual observation); details: image-recorded paper at 40° C. and humidity 85%, visually observed
[2] = Evaluation of light fastness-1 (OD value of printed portion after 100 hours xenon fadeometer); details: ink prepared as in Example 1 from the salt named in the row; OD value of printed portion after 100 hours xenon fadeometer
Experimental: (§1) The prepared ink was filled in an ink cartridge for a piezo-type ink-jet printer EM-930C (manufactured by Seiko Epson). The printing was performed with this printer, and the light fastness was evaluated. Further, the storage stability of the ink was evaluated.
(A)-1 Evaluation of Light Fastness-1
Printing density (OD value) was measured after irradiating a printed portion with light for 100 hours using a xenon fadeometer (manufactured by Suga Shikenki) to evaluate the light fastness.

[3] = Evaluation of light fastness-2 (OD value of printed portion after 400 hours xenon fadeometer); details: ink prepared as in Example 1 from the salt named in the row; OD value of printed portion after 400 hours xenon fadeometer
Experimental: as §1
(A)-2 Evaluation of Light Fastness-2
Printing density (OD value) was measured after irradiating a printed-portion with light for 400 hours using axenon fadeometer (manufactured by Suga Shikenki), and the light fastness was evaluated.

[4] = Evaluation of storage stability of ink (40° C. for 3 months, insoluble matter and clogging); details: recording liquid stored at 40° C. for 3 months; insoluble matter and clogging
Experimental: as §1
(C) Evaluation of Storage Stability of Ink:
After a recording liquid was stored at 40° C. for 3 months, it was observedwhether or not an insoluble matterwas precipitated, and whether or not clogging occurred after continuous recording with the foregoing printer for a long period of time.

| SMILES | (B) moisture resistance [1] | (A)-1 light fastness-1 [2] | (A)-2 light fastness-2 [3] | (C) storage stability [4] |
| --- | --- | --- | --- | --- |
| CCCCc1c(N=Nc2cc(C(=O)O)ccc2C(=O)O)c(O)n(CCNc2nc(Cl)nc(NCCn3c(O)c(N=Nc4cc(C(=O)O)ccc4C(=O)O)c(CCCC)c(C#N)c3=O)n2)c(=O)c1C#N [Compound 278] | ⊚ | ⊚ | ◯ | Δ |
| CCc1c(N=Nc2cc(C(=O)O)ccc2C(=O)O)c(O)n(CCCNC(=O)c2cc(C(=O)O)c(C(=O)NCCCn3c(O)c(N=Nc4cc(C(=O)O)ccc4C(=O)O)c(C)c(C#N)c3=O)cc2C(=O)O)c(=O)c1C#N [Compound 280] | ⊚ | ⊚ | ⊚ | ◯ |
| Cc1c(N=Nc2cc(C(=O)O)ccc2C(=O)O)c(O)n(CCCCCCNC(=O)c2cc(C(=O)O)c(C(=O)NCCCCCCn3c(O)c(N=Nc4cc(C(=O)O)ccc4C(=O)O)c(C)c(C#N)c3=O)cc2C(=O)O)c(=O)c1C#N [Compound 281] | ⊚ | ⊚ | ◯ | ◯ |
| CCc1c(N=Nc2cc(C(=O)O)ccc2C(=O)O)c(O)n(CCNC(=O)c2cc(C(=O)O)c(C(=O)NCCn3c(O)c(N=Nc4cc(C(=O)O)ccc4C(=O)O)c(CC)c(C#N)c3=O)cc2C(=O)O)c(=O)c1C#N [Compound 283] | ⊚ | ⊚ | ⊚⊚ | ◯ |
| CCCCc1c(N=Nc2cc(C(=O)O)ccc2C(=O)O)c(O)n(CCNC(=O)c2cc(C(=O)O)c(C(=O)NCCn3c(O)c(N=Nc4cc(C(=O)O)ccc4C(=O)O)c(CCCC)c(C#N)c3=O)cc2C(=O)O)c(=O)c1C#N [Compound 284] | ⊚ | ⊚ | ⊚⊚ | ◯ |
| N#Cc1c(-c2ccccc2)c(N=Nc2cc(C(=O)O)ccc2C(=O)O)c(O)n(CCNC(=O)c2cc(C(=O)O)c(C(=O)NCCn3c(O)c(N=Nc4cc(C(=O)O)ccc4C(=O)O)c(-c4ccccc4)c(C#N)c3=O)cc2C(=O)O)c1=O [Compound 285] | ⊚ | ⊚ | ⊚⊚ | ◯ |
| N#Cc1c(-c2ccccc2)c(N=Nc2cc(C(=O)O)ccc2C(=O)O)c(O)n(CCCCCCNC(=O)c2cc(C(=O)O)c(C(=O)NCCCCCCn3c(O)c(N=Nc4cc(C(=O)O)ccc4C(=O)O)c(-c4ccccc4)c(C#N)c3=O)cc2C(=O)O)c1=O [Compound 287] | ⊚ | ⊚ | ⊚ | ◯ |
| N#Cc1c(C(F)(F)F)c(N=Nc2cc(C(=O)O)ccc2C(=O)O)c(O)n(CCNC(=O)c2cc(C(=O)O)c(C(=O)NCCn3c(O)c(N=Nc4cc(C(=O)O)ccc4C(=O)O)c(C(F)(F)F)c(C#N)c3=O)cc2C(=O)O)c1=O [Compound 291] | ⊚ | ⊚ | ⊚⊚ | ◯ |
| Cc1c(N=Nc2cccc(C(=O)O)c2C(=O)O)c(O)n(CCNC(=O)c2cc(C(=O)O)c(C(=O)NCCn3c(O)c(N=Nc4cccc(C(=O)O)c4C(=O)O)c(C)c(C#N)c3=O)cc2C(=O)O)c(=O)c1C#N [Compound 293] | ⊚ | ⊚ | ⊚⊚ | ◯ |
| Cc1c(N=Nc2cc(C(=O)O)ccc2C(=O)O)c(O)n(CCNc2nc(O)nc(NCCn3c(O)c(N=Nc4cc(C(=O)O)ccc4C(=O)O)c(C)c(C#N)c3=O)n2)c(=O)c1C#N [Compound 294] | ⊚ | ⊚ | ◯ | Δ |
| Cc1c(N=Nc2cc(C(=O)O)ccc2C(=O)O)c(O)n(CCNC(=O)c2cc(C(=O)NCCn3c(O)c(N=Nc4cc(C(=O)O)ccc4C(=O)O)c(C)c(C#N)c3=O)c(C(=O)O)cc2C(=O)O)c(=O)c1C#N [Compound 296] | ⊚ | ⊚ | ⊚ | ◯ |
| CCc1c(N=Nc2cc(C(=O)O)ccc2C(=O)O)c(O)n(CCNC(=O)c2cc(C(=O)NCCn3c(O)c(N=Nc4cc(C(=O)O)ccc4C(=O)O)c(CC)c(C#N)c3=O)c(C(=O)O)cc2C(=O)O)c(=O)c1C#N [Compound 297] | ⊚ | ⊚ | ⊚ | ◯ |
| Cc1c(N=Nc2cc(C(=O)O)ccc2C(=O)O)c(O)n(CCCCCCNC(=O)c2cc(C(=O)NCCCCCCn3c(O)c(N=Nc4cc(C(=O)O)ccc4C(=O)O)c(C)c(C#N)c3=O)c(C(=O)O)cc2C(=O)O)c(=O)c1C#N [Compound 299] | ⊚ | ⊚ | ◯ | ◯ |
| Cc1c(N=Nc2cc(C(=O)O)ccc2C(=O)O)c(O)n(CCNC(=O)c2ccc(C(=O)NCCn3c(O)c(N=Nc4cc(C(=O)O)ccc4C(=O)O)c(C)c(C#N)c3=O)c(C(=O)NCCn3c(O)c(N=Nc4cc(C(=O)O)ccc4C(=O)O)c(C)c(C#N)c3=O)c2)c(=O)c1C#N [Compound 305] | ⊚ | ⊚ | ⊚ | Δ |
| CCc1c(N=Nc2cc(C(=O)O)ccc2C(=O)O)c(O)n(CCNC(=O)c2ccc(C(=O)NCCn3c(O)c(N=Nc4cc(C(=O)O)ccc4C(=O)O)c(CC)c(C#N)c3=O)c(C(=O)NCCn3c(O)c(N=Nc4cc(C(=O)O)ccc4C(=O)O)c(CC)c(C#N)c3=O)c2)c(=O)c1C#N [Compound 308] | ⊚ | ⊚ | ⊚ | Δ |
| Cc1c(N=Nc2cc(C(=O)O)ccc2C(=O)O)c(O)n(CCCCCCNC(=O)c2cc(C(=O)NCCCCCCn3c(O)c(N=Nc4cc(C(=O)O)ccc4C(=O)O)c(C)c(C#N)c3=O)c(C(=O)NCCn3c(O)c(N=Nc4cc(C(=O)O)ccc4C(=O)O)c(C)c(C#N)c3=O)cc2C(=O)NCCCCCCn2c(O)c(N=Nc3cc(C(=O)O)ccc3C(=O)O)c(C)c(C#N)c2=O)c(=O)c1C#N [Compound 312] | ⊚ | ⊚ | ⊚ | Δ |
| Cc1c(N=Nc2cc(C(=O)O)ccc2C(=O)O)c(O)n(CCNc2nc(NCCn3c(O)c(N=Nc4cc(C(=O)O)ccc4C(=O)O)c(C)c(C#N)c3=O)nc(SCCC(=O)O)n2)c(=O)c1C#N [Compound 321] | ⊚ | ⊚ | ◯ | Δ |
| Cc1c(N=Nc2ccccc2C(=O)O)c(O)n(CCNC(=O)c2cc(C(=O)O)c(C(=O)NCCn3c(O)c(N=Nc4ccccc4C(=O)O)c(C)c(C#N)c3=O)cc2C(=O)O)c(=O)c1C#N [Compound 323] | ⊚ | ⊚ | ⊚ | Δ |
| CCc1c(N=Nc2cc(C(=O)O)ccc2C(=O)O)c(O)n(CCn2c(=O)c3cc4c(=O)n(CCn5c(O)c(N=Nc6cc(C(=O)O)ccc6C(=O)O)c(CC)c(C#N)c5=O)c(=O)c4cc3c2=O)c(=O)c1C#N [Compound 335] | ⊚ | ⊚ | ⊚⊚ | ◯ |
| CC(C)(C)c1c(N=Nc2cc(C(=O)O)ccc2C(=O)O)c(O)n(CCn2c(=O)c3cc4c(=O)n(CCn5c(O)c(N=Nc6cc(C(=O)O)ccc6C(=O)O)c(C(C)(C)C)c(C#N)c5=O)c(=O)c4cc3c2=O)c(=O)c1C#N [Compound 336] | ⊚ | ⊚ | ⊚⊚ | ◯ |
| Cc1c(N=Nc2cc(C(=O)O)ccc2C(=O)O)c(O)n(CCn2c(=O)c3cc4c(=O)n(CCn5c(O)c(N=Nc6cc(C(=O)O)ccc6C(=O)O)c(C)c(C#N)c5=O)c(=O)c4cc3c2=O)c(=O)c1C#N [Compound 342] | ⊚ | ⊚ | ⊚ | ◯ |
| Cc1c(N=Nc2cc(C(=O)O)ccc2C(=O)O)c(O)n(CCNc2nc(Cl)nc(NCCn3c(O)c(N=Nc4cc(C(=O)O)ccc4C(=O)O)c(C)c(C#N)c3=O)n2)c(=O)c1C#N [Compound No. 245] | ⊚ | ⊚ | ◯ | ◯ |
| Cc1c(N=Nc2cc(C(=O)O)ccc2C(=O)O)c(O)n(CCCCCCNc2nc(Cl)nc(NCCCCCCn3c(O)c(N=Nc4cc(C(=O)O)ccc4C(=O)O)c(C)c(C#N)c3=O)n2)c(=O)c1C#N [Compound No. 246] | ⊚ | ⊚ | Δ | Δ |
| Cc1c(N=Nc2cc(C(=O)O)ccc2C(=O)O)c(O)n(CCNC(=O)c2cc(C(=O)O)c(C(=O)NCCn3c(O)c(N=Nc4cc(C(=O)O)ccc4C(=O)O)c(C)c(C#N)c3=O)cc2C(=O)O)c(=O)c1C#N [Compound No. 279] | ⊚ | ⊚ | ⊚ | ◯ |
| Cc1c(N=Nc2cccc(C(=O)O)c2C(=O)O)c(O)n(CC(O)C(O)C(O)C(O)C(O)CO)c(=O)c1C#N (stereo not shown) [compound 29] | ◯ | ⊚ | ◯ and Δ | ◯ and Δ |
